Experimental findings from US20230365571A1, “COMPOUNDS AND COMPOSITIONS AS Sppl2a INHIBITORS” (Novartis AG, priority 2020, published 2023) are described below.

Assay [1] concerns the target T1, human SPPL2a (Homo sapiens, UniProt Q8TCT8).
T1 sequence (Q8TCT8 26-520): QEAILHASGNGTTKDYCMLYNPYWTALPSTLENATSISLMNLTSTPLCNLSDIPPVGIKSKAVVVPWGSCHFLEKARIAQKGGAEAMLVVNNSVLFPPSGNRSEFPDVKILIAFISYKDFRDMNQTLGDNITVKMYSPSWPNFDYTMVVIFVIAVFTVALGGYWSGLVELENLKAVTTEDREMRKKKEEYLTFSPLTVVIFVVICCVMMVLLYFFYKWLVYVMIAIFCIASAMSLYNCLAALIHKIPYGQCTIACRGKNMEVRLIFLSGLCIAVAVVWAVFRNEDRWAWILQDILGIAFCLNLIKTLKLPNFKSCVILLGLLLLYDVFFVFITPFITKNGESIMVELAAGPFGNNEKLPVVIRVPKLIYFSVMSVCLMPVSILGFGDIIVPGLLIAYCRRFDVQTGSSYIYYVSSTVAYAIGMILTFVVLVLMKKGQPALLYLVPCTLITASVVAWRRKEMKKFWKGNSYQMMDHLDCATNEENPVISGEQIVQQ
Nature of the assay: Sppl2a TL (translocation) imaging assay in U-2 OS cells. In kind it is cell-based. Also noted: expressed in transfected cells. Conditions: U-2 OS cells expressing human SPPL2a and EGFP-TNFα(aa1-76) NTF substrate; 24 h. How it is done: SPPL2a, TL in U-2 OS Cells. Stable U-2 OS cell lines expressing human SPPL2a constitutively and a EGFP-labeled TNFα(aa1-76) NTF substrate under a doxycycline-regulated promoter were used for the imaging assays. Cells were seeded at 3000 cells/30 μL/384-well in DMEM/GlutaMax™-I (Invitrogen) supplemented with tetracycline-free 10% FBS (Amimed) and incubated at 37° C., 5% CO2 for 3-4 h. Subsequently, 3.3 μL of inhibitors, prediluted in doxycycline-containing medium for 11-point concentration-response curves, were added to each well using a CyBi well liquid handling device (Cybio AG, Jena, Germany) to result in final inhibitor concentrations ranging from 100 μM to 1 nM (final DMSO concentration 0.9% (v/v)) and 5 μg/mL doxycycline). The cells were incubated with inhibitor at 37° C., 5% CO2 for 24 h. Thereafter cell were fixed in 4% PFA/PBS and in parallel, nuclei were stained with Hoechst (Invitrogen) 1:5000 in PBS for 30 min. The plates were imaged using a Cellomics ArrayScan VTI HCS reader with 10×/0.3NA objective (Thermo Fisher Scientific, USA). Six images per well were acquired. Images for the EGFP signal (Ex395, Em509) and the Hoechst nuclear dye (Ex350, Em425) were acquired simultaneously with image analysis using the “Nuclear Translocation” assay algorithm of the Cellomics ArrayScan software. Nuclei were detected based on the Hoechst staining, the nuclear mask was transferred to the EGFP channel, and a 4 pixel wide cytoplasm ring region was defined around the nucleus. The intensity of the EGFP signal was measured both in the nuclear and in the cytoplasm ring region of each individual cell (in general 800-1000 individual cells were analyzed per well), and the difference of the average nuclear versus average cytoplasmic intensity of the EGFP signal was calculated (“CircRingAvgIntenDiffCh2”=“CircAvgIntenCh2”−“RingAvgIntenCh2”). Additionally the number of cells were acquired (feature termed “ValidCellCount”) and used to calculate cell toxicity (CC50). Percent inhibition was calculated relative to the positive (0.5 μM LY-411,575=100% inhibition) and negative (DMSO=0% inhibition) controls. The IC50 value was calculated from the plot of percentage of inhibition vs inhibitor concentration using nonlinear regression analysis software, e.g., Origin (OriginLab Corp.).

For assay [2], the target named is T1, human SPPL2a. Nature of the assay: Sppl2a RGA (reporter gene assay) in HEK293 cells. In kind it is cell-based. Also noted: expressed in transfected cells; host or cells: HEK293 (transient). The conditions noted are these: NT-TNF-VP16-Gal4 substrate, Gal4-luciferase reporter, 24 h. An excerpt:
Sppl2a RGA (Reporter Gene Assay):
Sppl2a is an intramembrane aspartyl protease with similarities to presenilin, the active subunit of the γ-secretase complex. The assay is based on the coupling of the proteolytic degradation of a membrane bound synthetic substrate (VP16-Gal4 fusion protein with the N-terminal domain of TNF alpha), which migrates to the nucleus upon cleavage, with the Gal4 driven expression of luciferase. Inhibition of Sppl2a results in a reduction of nuclear VP16-Gal4 activator and therefore in a reduction of the production of luciferase. The luciferase dependent-luminescence is plotted against the concentrations of compound to generate a dose response curve, which allows the calculation of the IC50 value.
DNA vectors encoding human Sppl2a, NT-TNF-VP16-Gal4 and a Gal4-luciferase reporter were transiently transfected in HEK293 cells. In a typical experiment 5 μg plasmid for SPPL2a, 10 μg plasmid encoding the reporter Gal4-luciferase and 20 μg plasmid encoding the substrate NT-TF-VP16-Gal4 were mixed together. The DNA mixture was combined with 107 μl FuGENE® (Promega), 735 μl Opti-MEM® (Life Technologies) and incubated for 5 minutes at RT. To this mixture 20 mL of concentrated HEK293 cells were added and thoroughly mixed. The cell suspension was distributed to a white solid 384 well plate. Within 5 hours, 50 nl of compound in DMSO was stamped into the wells via pintool. The plate was incubated for 24 h at 37° C., 5% CO2 in a humidified incubator, before the addition of 25 μl Bright Glo. After incubation at RT for 5 min, the plate was transferred to a luminometer and the luminescence was measured. The IC50 was determined by plotting compound concentration vs. normalized luminescence values.

Take `COc1ccc(-c2cc(NC(=O)C[C@@H](C)C(=O)N[C@@H]3C(=O)N4CCCN4Cc4ccccc43)n(C)n2)cn1` [Example 97, (R)-N^4-(3-(6-Methoxypyridin-3-yl)-1-methyl-1H-pyrazol-5-yl)-2-methyl-N^1-((S)-11-oxo-2,3,10,11-tetrahydro-1H,5H-benzo[d]pyrazolo [1,2-a][1,2]diazepin-10-yl)succinamide]: the results for the IC50 in assay [1] and in assay [2] were 13 nM and 15 nM, respectively.

Take `Cc1cncc(-c2cc(NC(=O)C[C@H](C(=O)N[C@@H]3C(=O)N4CCCN4Cc4ccccc43)C3CC3)n(C)n2)c1` [Example 75, (S)-2 Cyclopropyl-N^4-(1-methyl-3-(5-methylpyridin-3-yl)-1H-pyrazol-5-yl)-N^1-((S)-11-oxo-2,3,10,11-tetrahydro-1H,5H-benzo[d]pyrazolo [1,2-a][1,2]diazepin-10-yl)succinamide]: the half-maximal inhibitory concentration (IC50) in assay [1] amounted to 5 nM; in assay [2], 4 nM.

For `C[C@H](CC(=O)Nc1cc(C(=O)Nc2ccccc2F)nn1C)C(=O)N[C@@H]1C(=O)N2CCCN2Cc2ccccc21` [Example 109, (R)—N^4-(3-((2-fluorophenyl)carbamoyl)-1-methyl-1H-pyrazol-5-yl)-2-methyl-N^1—((S)-11-oxo-2,3,10,11-tetrahydro-1H,5H-benzo[d]pyrazolo[1,2-a][1,2]diazepin-10-yl)succinamide], the 50% inhibitory concentration (IC50) was determined as 2 nM in assay [1] and 3 nM in assay [2].

Take `C[C@H](Cc1nc2cccc(Br)c2[nH]1)C(=O)N[C@@H]1C(=O)N2CCCN2Cc2ccccc21` [Example 113, (R)-3-(7-bromo-1H-benzo[d]imidazol-2-yl)-2-methyl-N-((S)-11-oxo-2,3,10,11-tetrahydro-1H,5H-benzo[d]pyrazolo[1,2-a][1,2]diazepin-10-yl)propanamide]: the IC50 in assay [1] turned out to be 180 nM; in assay [2], 42 nM.

For `CC[C@H](CNC(=O)c1scnc1C(F)(F)F)C(=O)N[C@@H]1C(=O)N2CC3(CC3)CN2C(=O)c2ccccc21` [Example 57, N-((R)-2-(((S)-5,11-Dioxo-10,11-dihydro-1H,3H,5H-spiro[benzo[d]pyr-azolo[1,2-a][1,2]diazepine-2,1′-cyclopropan]-10-yl)carbamoyl)butyl)-4-(trifluoromethyl) thiazole-5-carboxamide], the figures for the IC50 in assay [1] and in assay [2] were 332 nM and 148 nM, respectively.

Take `Cc1nc(-c2ccc(C(F)(F)F)nc2)sc1C(=O)NC[C@H](C(=O)N[C@@H]1C(=O)N2CCCN2C(=O)c2ccccc21)C(F)(F)F` [Example 38, N-((R)-2-(((S)-5,11-Dioxo-2,3,10,11-tetrahydro-1H,5H-benzo[d]pyrazolo [1,2-a][1,2]diazepin-10-yl)carbamoyl)-3,3,3-trifluoropropyl)-4-methyl-2-(6-(trifluoromethyl)pyridin-3-yl)thiazole-5-carboxamide]: the results for the IC50 in assay [1] and in assay [2] were 54 nM and 43 nM, respectively.

As for `CC[C@H](CNC(=O)c1sc(-c2ccc(OC)nc2)nc1Cl)C(=O)N[C@@H]1C(=O)N2CCCN2C(=O)c2ccccc21` [Example 34, 4-Chloro-N-((R)-2-(((S)-5,11-dioxo-2,3,10,11-tetrahydro-1H,5H-benzo[d]pyrazolo [1,2-a][1,2]diazepin-10-yl)carbamoyl)butyl)-2-(6-methoxypyridin-3-yl)thiazole-5-carboxamide], the IC50 was 43 nM in assay [1] and 50 nM in assay [2].

As for `CC[C@H](CNC(=O)c1oncc1C)C(=O)N[C@@H]1C(=O)N2CCCN2Cc2ccccc21` [Example 51, 4-Methyl-N-((R)-2-(((S)-11-oxo-2,3,10,11-tetrahydro-1H,5H-benzo[d]pyrazolo [1,2-a][1,2]diazepin-10-yl)carbamoyl)butyl) isoxazole-5-carboxamide], the figures for the IC50 in assay [1] and in assay [2] were 99 nM and 52 nM, respectively.

As for `C[C@H](CC(=O)Nc1cc(-c2ccc(F)cn2)nn1C)C(=O)N[C@@H]1C(=O)N2CCCN2Cc2ccccc21` [Example 87, (R)-N^4-(3-(5-Fluoropyridin-2-yl)-1-methyl-1H-pyrazol-5-yl)-2-methyl-N^1-((S)-11-oxo-2,3,10,11-tetrahydro-1H,5H-benzo[d]pyrazolo [1,2-a][1,2]diazepin-10-yl)succinamide], the IC50 in assay [1] and in assay [2] was 10 nM in each case.

Take `CC[C@H](CNC(=O)c1scnc1Cl)C(=O)N[C@@H]1C(=O)N2CCCN2Cc2ccccc21` [Example 39, 4-Chloro-N-((R)-2-(((S)-11-oxo-2,3,10,11-tetrahydro-1H,5H-benzo[d]pyrazolo [1,2-a][1,2]diazepin-10-yl)carbamoyl)butyl) thiazole-5-carboxamide]: the IC50 in assay [1] was 54 nM; in assay [2], 24 nM.

On to `CC[C@H](CNC(=O)c1ccnn1C(F)F)C(=O)N[C@@H]1C(=O)N2CC3(CC3)CN2C(=O)c2ccccc21` [Example 56, 1-(Difluoromethyl)-N-((R)-2-(((S)-5,11-dioxo-10,11-dihydro-1H,3H,5H-spiro[benzo[d]pyr-azolo[1,2-a][1,2]diazepine-2,1′-cyclopropan]-10-yl)carbamoyl)butyl)-1H-pyrazole-5-carboxamide], for which the IC50 in assay [1] was determined as 191 nM; in assay [2], 101 nM.

With `CC[C@H](CNC(=O)c1sc(C2=CCCC2)nc1Cl)C(=O)N[C@@H]1C(=O)N2CCCN2C(=O)c2ccccc21` [Example 28, 4-Chloro-2-(cyclopent-1-en-1-yl)-N-((R)-2-(((S)-5,11-dioxo-2,3,10,11-tetrahydro-1H,5H-benzo[d]pyrazolo [1,2-a][1,2]diazepin-10-yl)carbamoyl)butyl) thiazole-5-carboxamide], the half-maximal inhibitory concentration (IC50) in assay [1] worked out at 28 nM; in assay [2], 88 nM.

Regarding `C[C@H](CC(=O)Nc1sc(-c2cnn(C3COC3)c2)nc1Cl)C(=O)N[C@@H]1C(=O)N2CCCN2Cc2ccccc21` [Example 95, (R)-N^4-(4-Chloro-2-(1-(oxetan-3-yl)-1H-pyrazol-4-yl)thiazol-5-yl)-2-methyl-N^1-((S)-11-oxo-2,3,10,11-tetrahydro-1H,5H-benzo[d]pyrazolo [1,2-a][1,2]diazepin-10-yl)succinamide], the values for the concentration for half-maximal inhibition (IC50) in assay [1] and in assay [2] were 12 nM and 23 nM, respectively.

In the case of `C[C@H](CNC(=O)c1ccnn1C)C(=O)N[C@@H]1C(=O)N2CCCN2Cc2ccccc21` [Example 61, 1-methyl-N-((R)-2-methyl-3-oxo-3-(((S)-11-oxo-2,3,10,11-tetrahydro-1H,5H-benzo[d]pyrazolo [1,2-a][1,2]diazepin-10-yl)amino)propyl)-1H-pyrazole-5-carboxamide], the IC50 in assay [1] came to 686 nM; in assay [2] it was 691 nM.
